According to ChEMBL document CHEMBL3885881, “DrugMatrix”:

Organism: Rattus norvegicus
Test: DrugMatrix - Regimen: Daily Repeat
Assay type: toxicity, organism-based, Sprague-Dawley
Set-up: regimen Daily Repeat, gender Male, age 6-8 weeks
Conditions: in vivo, po, route oral GAVAGE, […]; for ABSOLUTE BASOPHIL / ABSOLUTE EOSINOPHIL / ABSOLUTE LYMPHOCYTE / ABSOLUTE MONOCYTE / ABSOLUTE SEGMENTED NEUTROPHIL / BASOPHIL / EOSINOPHIL / ERYTHROCYTE COUNT / HEMATOCRIT / HEMOGLOBIN / LEUKOCYTE COUNT / LYMPHOCYTE / MEAN CORPUSCULAR HEMOGLOBIN / MEAN CORPUSCULAR HEMOGLOBIN CONCENTRATION / MEAN CORPUSCULAR VOLUME / MONOCYTE / NEUTROPHIL / NUCLEATED RED BLOOD CELLS / PLATELET COUNT: tissue Blood; for ALANINE AMINOTRANSFERASE / ALBUMIN / ALKALINE PHOSPHATASE / ASPARTATE AMINOTRANSFERASE / BLOOD UREA NITROGEN / CARBON DIOXIDE / CHLORIDE / CHOLESTEROL / CREATINE PHOSPHOKINASE / CREATININE / GLUCOSE / LACTATE DEHYDROGENASE / LIPASE / PHOSPHORUS / POTASSIUM / SODIUM / TOTAL BILIRUBIN / TOTAL PROTEIN / URIC ACID: tissue Plasma
[1] = 0 mg/kg, 72 h, dose level Control, time 3 day
[2] = 0 mg/kg, 120 h, dose level Control, time 5 day
[3] = 30 mg/kg, 72 h, dose level Low, time 3 day

`Cc1oncc1C(=O)Nc1ccc(C(F)(F)F)cc1` [LEFLUNOMIDE] was tested, and the “ABSOLUTE BASOPHIL” value [1] was 0 CELLS/uL, the “ABSOLUTE EOSINOPHIL” value [1] was 52.33 CELLS/uL and the “ABSOLUTE LYMPHOCYTE” value [1] was 9105.33 CELLS/uL. For the same compound, the “ABSOLUTE MONOCYTE” value [1] was 155.67 CELLS/uL, the “ABSOLUTE SEGMENTED NEUTROPHIL” value [1] was 1020 CELLS/uL and the BASOPHIL [1] was 0%. For the same compound, the EOSINOPHIL [1] was 0.33%, the “ERYTHROCYTE COUNT” value [1] was 5.03 x10E6/uL and the HEMATOCRIT [1] was 31.63%. The HEMOGLOBIN [1] was 12.37 G/DL, the “LEUKOCYTE COUNT” value [1] was 10.33 x10E3/uL and the LYMPHOCYTE [1] was 87%. The “MEAN CORPUSCULAR HEMOGLOBIN” value [1] was 24.57 pg, the “MEAN CORPUSCULAR HEMOGLOBIN CONCENTRATION” value [1] was 39.07 G/DL and the “MEAN CORPUSCULAR VOLUME” value [1] was 62.93 fL. For the same compound, the MONOCYTE [1] was 1.33%, the NEUTROPHIL [1] was 11.33% and the “NUCLEATED RED BLOOD CELLS” value [1] was 0 /100WBC. The “PLATELET COUNT” value [1] was 896 x10E3/uL, the “ALANINE AMINOTRANSFERASE” value [1] was 75.33 u/L and the ALBUMIN [1] was 3.77 G/DL. The “ALKALINE PHOSPHATASE” value [1] was 378.67 u/L, the “ASPARTATE AMINOTRANSFERASE” value [1] was 101.33 u/L and the “BLOOD UREA NITROGEN” value [1] was 11.33 mg/dL. The “CARBON DIOXIDE” value [1] was 25 mmol/L, the CHLORIDE [1] was 99 MEQ/L and the CHOLESTEROL [1] was 66 mg/dL. The “CREATINE PHOSPHOKINASE” value [1] was 277 u/L, the CREATININE [1] was 0.33 mg/dL and the GLUCOSE [1] was 198.33 mg/dL. The “LACTATE DEHYDROGENASE” value [1] was 140.33 u/L, the LIPASE [1] was 11.33 u/L and the PHOSPHORUS [1] was 11.83 mg/dL. The POTASSIUM [1] was 5.37 MEQ/L, the SODIUM [1] was 141.03 MEQ/L and the “TOTAL BILIRUBIN” value [1] was 0.2 mg/dL. For the same compound, the “TOTAL PROTEIN” value [1] was 5.47 G/DL, the “URIC ACID” value [1] was 0.93 mg/dL and the “ABSOLUTE BASOPHIL” value [2] was 0 CELLS/uL. For the same compound, the “ABSOLUTE EOSINOPHIL” value [2] was 0 CELLS/uL, the “ABSOLUTE LYMPHOCYTE” value [2] was 8734 CELLS/uL and the “ABSOLUTE MONOCYTE” value [2] was 98.67 CELLS/uL. The “ABSOLUTE SEGMENTED NEUTROPHIL” value [2] was 1034 CELLS/uL, the BASOPHIL [2] was 0% and the EOSINOPHIL [2] was 0%. For the same compound, the “ERYTHROCYTE COUNT” value [2] was 5.19 x10E6/uL, the HEMATOCRIT [2] was 33.2% and the HEMOGLOBIN [2] was 12.93 G/DL. The “LEUKOCYTE COUNT” value [2] was 9.87 x10E3/uL, the LYMPHOCYTE [2] was 87% and the “MEAN CORPUSCULAR HEMOGLOBIN” value [2] was 25 pg. The “MEAN CORPUSCULAR HEMOGLOBIN CONCENTRATION” value [2] was 39.03 G/DL, the “MEAN CORPUSCULAR VOLUME” value [2] was 63.93 fL and the MONOCYTE [2] was 1%. The NEUTROPHIL [2] was 12%, the “NUCLEATED RED BLOOD CELLS” value [2] was 0 /100WBC and the “PLATELET COUNT” value [2] was 1190 x10E3/uL. For the same compound, the “ALANINE AMINOTRANSFERASE” value [2] was 75.67 u/L, the ALBUMIN [2] was 4 G/DL and the “ALKALINE PHOSPHATASE” value [2] was 384.33 u/L. For the same compound, the “ASPARTATE AMINOTRANSFERASE” value [2] was 89.67 u/L, the “BLOOD UREA NITROGEN” value [2] was 13 mg/dL and the “CARBON DIOXIDE” value [2] was 32.67 mmol/L. The CHLORIDE [2] was 103 MEQ/L, the CHOLESTEROL [2] was 79.67 mg/dL and the “CREATINE PHOSPHOKINASE” value [2] was 199.33 u/L. For the same compound, the CREATININE [2] was 0.29 mg/dL, the GLUCOSE [2] was 161.33 mg/dL and the “LACTATE DEHYDROGENASE” value [2] was 92.33 u/L. It also gave an LIPASE [2] of 11.67 u/L, a PHOSPHORUS [2] of 10.8 mg/dL and a POTASSIUM [2] of 5.38 MEQ/L. The SODIUM [2] was 145.3 MEQ/L, the “TOTAL BILIRUBIN” value [2] was 0.17 mg/dL and the “TOTAL PROTEIN” value [2] was 5.7 G/DL. The “URIC ACID” value [2] was 0.63 mg/dL, the “ABSOLUTE BASOPHIL” value [3] was 0 CELLS/uL and the “ABSOLUTE EOSINOPHIL” value [3] was 0 CELLS/uL. For the same compound, the “ABSOLUTE LYMPHOCYTE” value [3] was 5968 CELLS/uL, the “ABSOLUTE MONOCYTE” value [3] was 69 CELLS/uL and the “ABSOLUTE SEGMENTED NEUTROPHIL” value [3] was 863 CELLS/uL. The BASOPHIL [3] was 0%, the EOSINOPHIL [3] was 0% and the “ERYTHROCYTE COUNT” value [3] was 5.11 x10E6/uL. For the same compound, the HEMATOCRIT [3] was 32.33%, the HEMOGLOBIN [3] was 12.8 G/DL and the “LEUKOCYTE COUNT” value [3] was 6.9 x10E3/uL. The LYMPHOCYTE [3] was 87%, the “MEAN CORPUSCULAR HEMOGLOBIN” value [3] was 25.03 pg and the “MEAN CORPUSCULAR HEMOGLOBIN CONCENTRATION” value [3] was 39.63 G/DL. The “MEAN CORPUSCULAR VOLUME” value [3] was 63.2 fL, the MONOCYTE [3] was 1% and the NEUTROPHIL [3] was 12%. The “NUCLEATED RED BLOOD CELLS” value [3] was 0 /100WBC, the “PLATELET COUNT” value [3] was 794.67 x10E3/uL and the “ALANINE AMINOTRANSFERASE” value [3] was 46.33 u/L. For the same compound, the ALBUMIN [3] was 3.67 G/DL, the “ALKALINE PHOSPHATASE” value [3] was 251.33 u/L and the “ASPARTATE AMINOTRANSFERASE” value [3] was 75.67 u/L. The “BLOOD UREA NITROGEN” value [3] was 8 mg/dL, the “CARBON DIOXIDE” value [3] was 29.67 mmol/L and the CHLORIDE [3] was 101.33 MEQ/L. The CHOLESTEROL [3] was 98.67 mg/dL, the “CREATINE PHOSPHOKINASE” value [3] was 199.67 u/L and the CREATININE [3] was 0.1 mg/dL. The GLUCOSE [3] was 181.33 mg/dL, the “LACTATE DEHYDROGENASE” value [3] was 70 u/L and the LIPASE [3] was 10.67 u/L. The PHOSPHORUS [3] was 9.87 mg/dL, the POTASSIUM [3] was 4.69 MEQ/L and the SODIUM [3] was 144.17 MEQ/L. For the same compound, the “TOTAL BILIRUBIN” value [3] was 0.13 mg/dL, the “TOTAL PROTEIN” value [3] was 5.17 G/DL and the “URIC ACID” value [3] was 0.53 mg/dL.
